Source: paper PMC11314561, “Design and Synthesis of Novel Aminoindazole-pyrrolo[2,3-b]pyridine Inhibitors of IKKα That Selectively Perturb Cellular Non-Canonical NF-κB Signalling” (Molecules, 2024)
Each block holds one molecule with its values, some of them ahead of it.

Experiments:
Assay in all cases: kinase panel
Assay type in all cases: biochemical
[1] = biological target: ALK4(h) (Homo sapiens, UniProt P36896)
In short: (§1)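 Percentage inhibition was recorded for each compound against a broad kinase panel of 231 enzymes. Because of its close structural resemblance to another analogue, one compound was screened against 98 chosen kinases.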

[2] = biological target: Axl(h) (Homo sapiens, UniProt P30530)
In short: as §1

[3] = biological target: Blk(h) (Homo sapiens, UniProt P51451)
In short: as §1

[4] = biological target: BrSK2(h) (Homo sapiens, UniProt Q8IWQ3)
In short: as §1

[5] = biological target: CSK(h) (Homo sapiens, UniProt P41240)
In short: as §1

[6] = biological target: DMPK(h) (Homo sapiens, UniProt Q09013)
In short: as §1

[7] = biological target: EphA7(h) (Homo sapiens, UniProt Q15375)
In short: as §1

[8] = biological target: EphA8(h) (Homo sapiens, UniProt P29322)
In short: as §1

[9] = biological target: EphB1(h) (Homo sapiens, UniProt P54762)
In short: as §1

[10] = biological target: FGFR4(h) (Homo sapiens, UniProt P22455)
In short: as §1

[11] = biological target: Fgr(h) (Homo sapiens, UniProt P09769)
In short: as §1

[12] = biological target: Fyn(h) (Homo sapiens, UniProt P06241)
In short: as §1

[13] = biological target: HIPK2(h) (Homo sapiens, UniProt Q9H2X6)
In short: as §1

[14] = biological target: IRR(h) (Homo sapiens, UniProt P14616)
In short: as §1

[15] = biological target: LKB1(h) (Homo sapiens, UniProt Q15831)
In short: as §1

[16] = biological target: Lck(h) activated (Homo sapiens, UniProt P06239)
In short: as §1

[17] = biological target: MAPK2(h) (Homo sapiens, UniProt P28482)
In short: as §1

[18] = biological target: MLK1(h) (Homo sapiens, UniProt P80192)
In short: as §1

[19] = biological target: MSK2(h) (Homo sapiens, UniProt O75676)
In short: as §1

[20] = biological target: NEK11(h) (Homo sapiens, UniProt Q8NG66)
In short: as §1

[21] = biological target: NEK6(h) (Homo sapiens, UniProt Q9HC98)
In short: as §1

[22] = biological target: NEK7(h) (Homo sapiens, UniProt Q8TDX7)
In short: as §1

[23] = biological target: NLK(h) (Homo sapiens, UniProt Q9UBE8)
In short: as §1

[24] = biological target: PAK4(h) (Homo sapiens, UniProt O96013)
In short: as §1

[25] = biological target: PAK5(h) (Homo sapiens, UniProt Q9P286)
In short: as §1

[26] = biological target: PAK6(h) (Homo sapiens, UniProt Q9NQU5)
In short: as §1

[27] = biological target: PKCβII(h) (Homo sapiens, UniProt P05771)
In short: as §1

[28] = biological target: PKCι(h) (Homo sapiens, UniProt P41743)
In short: as §1

[29] = biological target: PKG1β(h) (Homo sapiens, UniProt Q13976)
In short: as §1

[30] = biological target: PhKγ2(h) (Homo sapiens, UniProt P15735)
In short: as §1

[31] = biological target: Pim-2(h) (Homo sapiens, UniProt Q9P1W9)
In short: as §1

[32] = biological target: Plk3(h) (Homo sapiens, UniProt Q9H4B4)
In short: as §1

[33] = biological target: RIPK2(h) (Homo sapiens, UniProt O43353)
In short: as §1

[34] = biological target: SAPK2a(h) (Homo sapiens, UniProt Q16539)
In short: as §1

[35] = biological target: SAPK2b(h) (Homo sapiens, UniProt Q15759)
In short: as §1

[36] = biological target: SGK2(h) (Homo sapiens, UniProt Q9HBY8)
In short: as §1

[37] = biological target: TGFBR1(h) (Homo sapiens, UniProt P36897)
In short: as §1

[38] = biological target: TLK2(h) (Homo sapiens, UniProt Q86UE8)
In short: as §1

[39] = biological target: TSSK2(h) (Homo sapiens, UniProt Q96PF2)
In short: as §1

[40] = biological target: Tec(h) activated (Homo sapiens, UniProt P42680)
In short: as §1

[41] = biological target: ULK2(h) (Homo sapiens, UniProt Q8IYT8)
In short: as §1

[42] = biological target: eEF-2K(h) (Homo sapiens, UniProt O00418)
In short: as §1

MLK1(h), sequence (P80192 whole entry): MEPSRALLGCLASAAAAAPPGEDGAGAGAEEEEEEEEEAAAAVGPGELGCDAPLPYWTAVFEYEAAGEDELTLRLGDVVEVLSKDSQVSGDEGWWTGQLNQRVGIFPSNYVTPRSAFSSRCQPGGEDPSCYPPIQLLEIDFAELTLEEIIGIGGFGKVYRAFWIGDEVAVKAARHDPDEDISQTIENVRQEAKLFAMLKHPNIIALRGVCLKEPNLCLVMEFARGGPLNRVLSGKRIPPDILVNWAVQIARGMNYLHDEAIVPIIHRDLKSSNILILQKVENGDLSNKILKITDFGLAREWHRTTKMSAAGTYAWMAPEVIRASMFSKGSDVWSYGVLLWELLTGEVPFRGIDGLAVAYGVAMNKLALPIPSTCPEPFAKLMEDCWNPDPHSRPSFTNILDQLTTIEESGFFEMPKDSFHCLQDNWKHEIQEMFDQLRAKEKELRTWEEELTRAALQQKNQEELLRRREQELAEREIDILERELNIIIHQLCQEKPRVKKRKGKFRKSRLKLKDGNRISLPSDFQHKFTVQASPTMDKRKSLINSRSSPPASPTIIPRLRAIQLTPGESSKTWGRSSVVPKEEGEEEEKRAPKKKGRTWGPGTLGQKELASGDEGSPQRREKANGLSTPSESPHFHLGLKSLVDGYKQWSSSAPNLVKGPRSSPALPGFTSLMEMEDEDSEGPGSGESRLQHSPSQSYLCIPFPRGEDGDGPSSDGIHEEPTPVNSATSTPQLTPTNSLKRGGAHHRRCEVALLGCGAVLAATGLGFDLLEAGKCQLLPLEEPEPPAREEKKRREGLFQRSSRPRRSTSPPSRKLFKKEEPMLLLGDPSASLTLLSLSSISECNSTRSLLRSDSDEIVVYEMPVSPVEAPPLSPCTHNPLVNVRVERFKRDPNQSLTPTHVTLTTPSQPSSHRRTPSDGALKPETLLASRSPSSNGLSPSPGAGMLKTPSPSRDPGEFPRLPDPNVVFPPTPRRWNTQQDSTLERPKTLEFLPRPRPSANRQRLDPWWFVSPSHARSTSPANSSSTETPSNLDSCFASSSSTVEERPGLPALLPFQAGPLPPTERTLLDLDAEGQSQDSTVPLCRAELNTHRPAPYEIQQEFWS
Fyn(h), sequence (P06241 whole entry): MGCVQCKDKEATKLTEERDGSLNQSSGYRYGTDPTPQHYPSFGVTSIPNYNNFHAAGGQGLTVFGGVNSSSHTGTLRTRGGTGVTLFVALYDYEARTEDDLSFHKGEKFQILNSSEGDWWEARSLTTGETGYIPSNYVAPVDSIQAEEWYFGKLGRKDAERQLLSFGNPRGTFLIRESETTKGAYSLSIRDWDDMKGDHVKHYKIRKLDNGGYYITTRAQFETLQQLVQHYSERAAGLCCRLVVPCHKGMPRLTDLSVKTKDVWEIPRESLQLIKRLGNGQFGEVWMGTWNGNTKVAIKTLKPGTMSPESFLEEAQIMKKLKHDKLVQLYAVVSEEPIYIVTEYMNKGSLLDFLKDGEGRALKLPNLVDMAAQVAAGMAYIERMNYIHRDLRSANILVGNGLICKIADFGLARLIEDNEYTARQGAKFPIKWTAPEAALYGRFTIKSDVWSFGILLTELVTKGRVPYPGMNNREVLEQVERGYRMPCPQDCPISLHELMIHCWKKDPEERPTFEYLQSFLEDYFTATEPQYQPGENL
Pim-2(h), sequence (Q9P1W9 whole entry): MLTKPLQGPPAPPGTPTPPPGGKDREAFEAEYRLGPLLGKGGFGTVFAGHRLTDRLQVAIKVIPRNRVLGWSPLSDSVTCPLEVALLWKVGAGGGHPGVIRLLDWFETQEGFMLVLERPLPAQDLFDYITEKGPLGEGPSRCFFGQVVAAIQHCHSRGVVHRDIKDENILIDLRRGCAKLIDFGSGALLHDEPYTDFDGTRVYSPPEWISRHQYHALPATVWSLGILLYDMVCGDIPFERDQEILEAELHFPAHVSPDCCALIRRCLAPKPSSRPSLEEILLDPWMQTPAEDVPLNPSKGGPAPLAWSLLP
NEK7(h), sequence (Q8TDX7 whole entry): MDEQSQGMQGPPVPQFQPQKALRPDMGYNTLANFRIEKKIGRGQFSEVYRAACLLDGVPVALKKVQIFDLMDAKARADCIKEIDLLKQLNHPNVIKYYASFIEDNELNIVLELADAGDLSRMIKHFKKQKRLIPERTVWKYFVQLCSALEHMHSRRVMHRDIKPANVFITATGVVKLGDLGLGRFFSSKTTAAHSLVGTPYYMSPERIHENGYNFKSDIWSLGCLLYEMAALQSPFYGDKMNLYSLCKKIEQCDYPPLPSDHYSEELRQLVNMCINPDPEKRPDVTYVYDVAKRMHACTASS
PAK5(h), sequence (Q9P286 whole entry): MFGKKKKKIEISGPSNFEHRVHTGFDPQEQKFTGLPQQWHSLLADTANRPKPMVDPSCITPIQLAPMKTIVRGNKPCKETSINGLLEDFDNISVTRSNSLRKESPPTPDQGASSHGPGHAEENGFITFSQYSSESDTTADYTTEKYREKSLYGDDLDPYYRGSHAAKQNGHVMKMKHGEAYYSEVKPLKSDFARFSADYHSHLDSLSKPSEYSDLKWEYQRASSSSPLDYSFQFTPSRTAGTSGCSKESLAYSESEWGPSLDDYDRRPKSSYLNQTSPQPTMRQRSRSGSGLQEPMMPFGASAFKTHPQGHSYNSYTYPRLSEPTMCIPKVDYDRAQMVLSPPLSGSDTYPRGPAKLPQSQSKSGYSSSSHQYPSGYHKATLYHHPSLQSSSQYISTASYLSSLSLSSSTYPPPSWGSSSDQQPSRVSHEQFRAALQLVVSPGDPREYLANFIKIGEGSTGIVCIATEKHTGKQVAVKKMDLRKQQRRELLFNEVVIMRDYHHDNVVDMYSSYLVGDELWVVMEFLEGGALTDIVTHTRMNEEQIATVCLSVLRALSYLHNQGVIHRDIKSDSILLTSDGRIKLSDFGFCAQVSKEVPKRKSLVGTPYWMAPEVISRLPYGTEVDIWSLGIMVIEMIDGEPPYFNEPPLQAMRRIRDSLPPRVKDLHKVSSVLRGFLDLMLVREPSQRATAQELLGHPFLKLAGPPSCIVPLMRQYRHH
PAK6(h), sequence (Q9NQU5 whole entry): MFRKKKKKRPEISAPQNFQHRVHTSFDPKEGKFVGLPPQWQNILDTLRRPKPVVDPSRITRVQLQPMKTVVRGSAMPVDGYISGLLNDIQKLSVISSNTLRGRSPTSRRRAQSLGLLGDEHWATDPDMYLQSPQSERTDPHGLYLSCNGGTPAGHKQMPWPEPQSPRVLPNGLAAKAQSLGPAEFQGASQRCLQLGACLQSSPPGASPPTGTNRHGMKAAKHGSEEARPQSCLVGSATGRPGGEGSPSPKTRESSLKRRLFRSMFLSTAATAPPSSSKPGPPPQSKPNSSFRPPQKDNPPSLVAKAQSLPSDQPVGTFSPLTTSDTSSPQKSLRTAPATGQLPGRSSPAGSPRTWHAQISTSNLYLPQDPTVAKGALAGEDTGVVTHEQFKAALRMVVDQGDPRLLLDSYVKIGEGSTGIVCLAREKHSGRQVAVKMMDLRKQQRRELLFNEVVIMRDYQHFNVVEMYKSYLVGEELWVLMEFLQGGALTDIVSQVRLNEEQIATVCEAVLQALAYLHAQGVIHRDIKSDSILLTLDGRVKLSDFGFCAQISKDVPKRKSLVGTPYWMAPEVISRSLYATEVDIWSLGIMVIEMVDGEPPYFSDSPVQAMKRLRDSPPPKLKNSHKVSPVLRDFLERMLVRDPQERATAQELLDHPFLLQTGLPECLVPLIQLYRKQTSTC
BrSK2(h), sequence (Q8IWQ3 whole entry): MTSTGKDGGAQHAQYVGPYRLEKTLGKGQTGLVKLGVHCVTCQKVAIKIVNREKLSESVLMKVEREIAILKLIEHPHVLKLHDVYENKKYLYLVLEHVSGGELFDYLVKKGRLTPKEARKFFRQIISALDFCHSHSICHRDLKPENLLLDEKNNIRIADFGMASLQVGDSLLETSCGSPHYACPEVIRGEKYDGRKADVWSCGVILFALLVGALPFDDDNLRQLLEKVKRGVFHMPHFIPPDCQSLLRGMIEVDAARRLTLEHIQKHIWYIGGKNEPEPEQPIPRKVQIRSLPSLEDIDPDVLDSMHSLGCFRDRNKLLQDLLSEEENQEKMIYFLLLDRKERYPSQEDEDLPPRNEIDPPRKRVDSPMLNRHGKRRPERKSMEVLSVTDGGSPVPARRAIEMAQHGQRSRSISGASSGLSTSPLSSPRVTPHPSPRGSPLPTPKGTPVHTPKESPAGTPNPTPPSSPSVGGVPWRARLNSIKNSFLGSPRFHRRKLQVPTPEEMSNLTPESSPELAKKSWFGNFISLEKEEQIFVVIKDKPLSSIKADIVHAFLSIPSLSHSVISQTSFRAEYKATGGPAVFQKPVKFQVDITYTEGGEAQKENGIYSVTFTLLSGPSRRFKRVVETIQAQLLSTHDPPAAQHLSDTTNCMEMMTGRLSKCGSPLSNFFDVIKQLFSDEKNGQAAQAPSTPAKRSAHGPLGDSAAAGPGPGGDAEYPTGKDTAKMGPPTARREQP
PAK4(h), sequence (O96013 whole entry): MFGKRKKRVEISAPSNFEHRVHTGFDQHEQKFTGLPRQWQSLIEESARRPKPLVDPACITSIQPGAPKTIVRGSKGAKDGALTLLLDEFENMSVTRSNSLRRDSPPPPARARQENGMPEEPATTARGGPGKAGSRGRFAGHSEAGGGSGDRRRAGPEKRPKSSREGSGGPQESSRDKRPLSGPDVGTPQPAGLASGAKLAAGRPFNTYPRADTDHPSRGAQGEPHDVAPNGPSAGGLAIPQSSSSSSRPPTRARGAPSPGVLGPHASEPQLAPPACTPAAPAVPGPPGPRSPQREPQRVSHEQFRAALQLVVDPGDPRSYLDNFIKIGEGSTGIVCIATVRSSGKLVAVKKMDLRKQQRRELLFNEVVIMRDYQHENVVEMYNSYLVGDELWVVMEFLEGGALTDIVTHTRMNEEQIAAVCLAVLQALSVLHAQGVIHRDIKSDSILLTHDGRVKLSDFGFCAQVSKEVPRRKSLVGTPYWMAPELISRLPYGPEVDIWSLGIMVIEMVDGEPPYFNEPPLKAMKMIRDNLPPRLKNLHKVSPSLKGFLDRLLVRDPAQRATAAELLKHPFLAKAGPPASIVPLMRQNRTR

inhibition at 1 µM [1]: 25%
inhibition at 1 µM [2]: 55%
inhibition at 1 µM [3]: 37%
inhibition at 1 µM [4]: 41%
inhibition at 1 µM [5]: -16%
inhibition at 1 µM [6]: 5%
inhibition at 1 µM [7]: 26%
inhibition at 1 µM [8]: -2%
inhibition at 1 µM [9]: 63%
inhibition at 1 µM [10]: 8%
inhibition at 1 µM [11]: 54%
inhibition at 1 µM [12]: 64%
inhibition at 1 µM [13]: 57%
inhibition at 1 µM [14]: 26%
inhibition at 1 µM [15]: 15%
inhibition at 1 µM [16]: 44%
inhibition at 1 µM [17]: 29%
inhibition at 1 µM [18]: 79%
inhibition at 1 µM [19]: 12%
inhibition at 1 µM [20]: 4%
inhibition at 1 µM [21]: 6%
inhibition at 1 µM [22]: -2%
inhibition at 1 µM [23]: 51%
inhibition at 1 µM [24]: 42%
inhibition at 1 µM [25]: 16%
inhibition at 1 µM [26]: 32%
inhibition at 1 µM [27]: 9%
inhibition at 1 µM [28]: 3%
inhibition at 1 µM [29]: 13%
inhibition at 1 µM [30]: 50%
inhibition at 1 µM [31]: 25%
inhibition at 1 µM [32]: -6%
inhibition at 1 µM [33]: 54%
inhibition at 1 µM [34]: -16%
inhibition at 1 µM [35]: -13%
inhibition at 1 µM [36]: 44%
inhibition at 1 µM [37]: 28%
inhibition at 1 µM [38]: -8%
inhibition at 1 µM [39]: -9%
inhibition at 1 µM [40]: 29%
inhibition at 1 µM [41]: 2%
inhibition at 1 µM [42]: 0%
Structure (SMILES): Nc1n[nH]c2ccc(-c3ccnc4[nH]c(-c5ccccc5)cc34)cc12 [Compound 4]

inhibition at 1 µM [1]: 8%
inhibition at 1 µM [2]: 9%
inhibition at 1 µM [3]: -4%
inhibition at 1 µM [4]: 9%
inhibition at 1 µM [5]: -4%
inhibition at 1 µM [6]: -4%
inhibition at 1 µM [7]: -3%
inhibition at 1 µM [8]: -7%
inhibition at 1 µM [9]: 14%
inhibition at 1 µM [10]: 6%
inhibition at 1 µM [11]: 33%
inhibition at 1 µM [12]: 33%
inhibition at 1 µM [13]: 14%
inhibition at 1 µM [14]: 1%
inhibition at 1 µM [15]: 17%
inhibition at 1 µM [16]: 23%
inhibition at 1 µM [17]: -1%
inhibition at 1 µM [18]: 56%
inhibition at 1 µM [19]: -3%
inhibition at 1 µM [20]: -6%
inhibition at 1 µM [21]: 3%
inhibition at 1 µM [22]: -2%
inhibition at 1 µM [23]: 1%
inhibition at 1 µM [24]: 37%
inhibition at 1 µM [25]: 10%
inhibition at 1 µM [26]: 22%
inhibition at 1 µM [27]: -1%
inhibition at 1 µM [28]: -10%
inhibition at 1 µM [29]: 1%
inhibition at 1 µM [30]: 21%
inhibition at 1 µM [31]: 5%
inhibition at 1 µM [32]: -7%
inhibition at 1 µM [33]: 19%
inhibition at 1 µM [34]: 0%
inhibition at 1 µM [35]: -18%
inhibition at 1 µM [36]: 30%
inhibition at 1 µM [37]: 21%
inhibition at 1 µM [38]: 0%
inhibition at 1 µM [39]: -9%
inhibition at 1 µM [40]: 62%
inhibition at 1 µM [41]: -4%
inhibition at 1 µM [42]: -7%
Structure (SMILES): Nc1n[nH]c2ccc(-c3ccnc4[nH]c(-c5cccc(OCc6ccccc6)c5)cc34)cc12 [Compound 5r [SU1261]]
